Values joined by “and” are separate entries in the source; they are usually repeats but may differ in a detail not shown here. Identical values can stand only once. Like-named read-outs stand apart in the source and are kept apart here.
Assay: Mouse blood and tissue PK (LC/MS-MS)
Type: in vivo
Details: for AUC(0-t): read-out: Blood AUClast; for half-life: read-out: Blood t1/2 (converted); for concentration at 4 h: read-out: RMC-6236 (nM) Tumor
Procedure: For single-dose PKPD study, mice were randomized and assigned into groups (n = 3/dose/time point). […] Blood and tissues, including the tumor, brain, colon, ear skin, and muscle, were harvested at indicated time points. […] The whole blood, tumor, brain, colon, and ear skin concentrations of RMC-6236 were determined using liquid chromatography–tandem mass spectrometry (LC/MS-MS) methods. […] After thorough mixing and centrifugation, the supernatant was diluted with water or directly analyzed on a Sciex 5500 or Sciex 6500+ triple quadrupole mass spectrometer equipped with an ACQUITY or Shimadzu UPLC system. […] Bioanalysis on blood and tissue samples from xenograft models was run at Pharmaron and Wuxi AppTec. Concentrations reported as below the quantification limit were treated as zero for PK analysis. PK parameters were calculated by noncompartmental analysis of the concentration–time profiles using Phoenix WinNonLin (version 8.3 Certara). Apparent terminal elimination half-life (t1/2) values were calculated as ln(2)/k, where k represents the terminal elimination rate constant. Area under the concentration–time curve (AUC) values were estimated using a linear trapezoidal method. AUClast values were calculated from the dosing time to the last quantifiable concentration. Maximum concentration (Cmax) was recorded as observed.

[1] = Balb/c nude, mouse, whole blood, po, 25 mg/kg, LU99-luc IC (25 mg/kg), single dose
[2] = Balb/c nude, mouse, whole blood, sc, 25 mg/kg, LU99-luc SC (25 mg/kg), single dose
[3] = Capan-2 (10 mg/kg), single dose
[4] = Capan-2 (25 mg/kg), single dose
[5] = LU99-luc IC #2 (25 mg/kg), adjacent normal brain
[6] = LU99-luc IC #2 (25 mg/kg), intracranial tumor
[7] = LU99-luc IC (25 mg/kg), intracranial tumor
[8] = LU99-luc SC (25 mg/kg), subcutaneous xenograft tumor
[9] = NCI-H358 (25 mg/kg), single dose
[10] = NCI-H441 #2 (25 mg/kg), QD x 10 days
[11] = NCI-H441 (3 mg/kg), single dose
[12] = NCI-H441 (10 mg/kg), single dose
[13] = NCI-H441 (25 mg/kg), single dose

SMILES: CCn1c(-c2cc(N3CCN(C)CC3)cnc2[C@H](C)OC)c2c3cc(ccc31)-c1csc(n1)C[C@H](NC(=O)[C@H]1C[C@@H]1C)C(=O)N1CCC[C@H](N1)C(=O)OCC(C)(C)C2 [RMC-6236]
- AUC(0-t) [1]: 16700 ng·h/mL
- half-life [1]: 229 min
- Cmax [2]: 1650 ng/mL
- AUC(0-t) [2]: 18600 ng·h/mL
- half-life [2]: 188 min
- Tumor AUClast (Capan-2 (3 mg/kg), single dose): 5138 ng·h/mL
- Tumor Cmax (Capan-2 (3 mg/kg), single dose): 218 ng/mL
- Tumor AUClast [3]: 23425 ng·h/mL
- Tumor Cmax [3]: 906 ng/mL
- Tumor AUClast [4]: 66696 ng·h/mL
- Tumor Cmax [4]: 3000 ng/mL
- concentration at 4 h (Capan-2, study Capan-2 #3_PHA 2020, 0.3 mg/kg, 2h): 21.6 nM and 12.8 nM
- concentration at 4 h (Capan-2, study Capan-2 #3_PHA 2020, 0.3 mg/kg, 8h): 15.8 nM and 20.9 nM
- concentration at 4 h (Capan-2, study Capan-2 #3_PHA 2020, 0.3 mg/kg, 24h): 7.5 nM and 9 nM
- RMC-6236 (nM) Tumor (Capan-2, study Capan-2 #3_PHA 2020, 0.3 mg/kg, 48h): BQL
- concentration at 4 h (Capan-2, study Capan-2 #3_PHA 2020, 3 mg/kg, 2h): 206 nM and 213 nM
- concentration at 4 h (Capan-2, study Capan-2 #3_PHA 2020, 3 mg/kg, 8h): 232 nM and 155 nM
- concentration at 4 h (Capan-2, study Capan-2 #3_PHA 2020, 3 mg/kg, 24h): 93 nM and 106 nM
- concentration at 4 h (Capan-2, study Capan-2 #3_PHA 2020, 3 mg/kg, 48h): 29 nM and 32 nM
- concentration at 4 h (Capan-2, study Capan-2 #3_PHA 2020, 10 mg/kg, 2h): 735 nM and 868 nM
- concentration at 4 h (Capan-2, study Capan-2 #3_PHA 2020, 10 mg/kg, 8h): 784 nM and 1189 nM
- concentration at 4 h (Capan-2, study Capan-2 #3_PHA 2020, 10 mg/kg, 24h): 388 nM and 425 nM
- concentration at 4 h (Capan-2, study Capan-2 #3_PHA 2020, 10 mg/kg, 48h): 127 nM and 106 nM
- concentration at 4 h (Capan-2, study Capan-2 #3_PHA 2020, 25 mg/kg, 2h): 1563 nM and 2949 nM
- concentration at 4 h (Capan-2, study Capan-2 #3_PHA 2020, 25 mg/kg, 8h): 2249 nM and 3216 nM
- concentration at 4 h (Capan-2, study Capan-2 #3_PHA 2020, 25 mg/kg, 24h): 1455 nM and 1672 nM
- concentration at 4 h (Capan-2, study Capan-2 #3_PHA 2020, 40 mg/kg, 2h): 6510 nM and 4764 nM
- concentration at 4 h (Capan-2, study Capan-2 #3_PHA 2020, 40 mg/kg, 8h): 4542 nM and 4547 nM
- concentration at 4 h (Capan-2, study Capan-2 #3_PHA 2020, 40 mg/kg, 24h): 2254 nM
- concentration at 4 h (Capan-2, study Capan-2 #3_PHA 2023, 3 mg/kg, 2h): 210.835 nM and 145.489 nM
- concentration at 4 h (Capan-2, study Capan-2 #3_PHA 2023, 3 mg/kg, 4h): 272.483 nM and 245.358 nM
- concentration at 4 h (Capan-2, study Capan-2 #3_PHA 2023, 3 mg/kg, 8h): 266.318 nM and 212.068 nM
- concentration at 4 h (Capan-2, study Capan-2 #3_PHA 2023, 3 mg/kg, 24h): 131.926 nM and 103.198 nM
- concentration at 4 h (Capan-2, study Capan-2 #3_PHA 2023, 3 mg/kg, 48h): 42.167 nM and 42.4136 nM
- concentration at 4 h (Capan-2, study Capan-2 #3_PHA 2023, 10 mg/kg, 2h): 596.75 nM and 1028.28 nM
- concentration at 4 h (Capan-2, study Capan-2 #3_PHA 2023, 10 mg/kg, 4h): 1166.37 nM and 954.307 nM
- concentration at 4 h (Capan-2, study Capan-2 #3_PHA 2023, 10 mg/kg, 8h): 1105.96 nM and 773.062 nM
- concentration at 4 h (Capan-2, study Capan-2 #3_PHA 2023, 10 mg/kg, 24h): 401.943 nM and 517.841 nM
- concentration at 4 h (Capan-2, study Capan-2 #3_PHA 2023, 10 mg/kg, 48h): 125.761 nM and 157.818 nM
- concentration at 4 h (Capan-2, study Capan-2 #3_PHA 2023, 25 mg/kg, 2h): 1750.8 nM and 1824.77 nM
- concentration at 4 h (Capan-2, study Capan-2 #3_PHA 2023, 25 mg/kg, 4h): 5030.45 nM and 3020.74 nM
- concentration at 4 h (Capan-2, study Capan-2 #3_PHA 2023, 25 mg/kg, 8h): 2379.6 nM and 2700.17 nM
- concentration at 4 h (Capan-2, study Capan-2 #3_PHA 2023, 25 mg/kg, 24h): 1997.39 nM and 1442.56 nM
- concentration at 4 h (Capan-2, study Capan-2 #3_PHA 2023, 50 mg/kg, 2h): 5178.41 nM and 4956.48 nM
- concentration at 4 h (Capan-2, study Capan-2 #3_PHA 2023, 50 mg/kg, 4h): 6411.36 nM and 6731.93 nM
- concentration at 4 h (Capan-2, study Capan-2 #3_PHA 2023, 50 mg/kg, 8h): 6251.08 nM and 3945.45 nM
- concentration at 4 h (Capan-2, study Capan-2 #3_PHA 2023, 50 mg/kg, 24h): 2996.08 nM and 1775.45 nM
- concentration at 4 h (Capan-2, study Capan-2 #3_PHA 2023, 100 mg/kg, 2h): 9025.23 nM and 8877.27 nM
- concentration at 4 h (Capan-2, study Capan-2 #3_PHA 2023, 100 mg/kg, 4h): 16521.6 nM and 11417.2 nM
- concentration at 4 h (Capan-2, study Capan-2 #3_PHA 2023, 100 mg/kg, 8h): 14795.5 nM and 9185.51 nM
- concentration at 4 h (Capan-2, study Capan-2 #3_PHA 2023, 100 mg/kg, 24h): 4216.7 nM and 3328.98 nM
- concentration at 4 h (Capan-2, study Capan-2 #3_PHA 2023, 100 mg/kg, 48h): 1124.45 nM and 1331.59 nM
- concentration at 4 h (HPAC #3, 50 mg/kg, 24h, individual animals, 50 mg/kg): 3354 nM
- concentration at 4 h (HPAC #3, 50 mg/kg, 48h, individual animals, 50 mg/kg): 1332 nM and 1603 nM
- concentration at 4 h (HPAC #4, 3 mg/kg, 4h, individual animals, 3 mg/kg): 108 nM and 297 nM and 238 nM
- concentration at 4 h (HPAC #4, 3 mg/kg, 8h, individual animals, 3 mg/kg): 335 nM and 387 nM
- concentration at 4 h (HPAC #4, 3 mg/kg, 24h, individual animals, 3 mg/kg): 207 nM and 164 nM
- RMC-6236 (nM) Tumor (HPAC #4, 3 mg/kg, 48h, individual animals): BQL
- concentration at 4 h (HPAC #4, 3 mg/kg, 48h, individual animals, 3 mg/kg): 29.3 nM
- concentration at 4 h (HPAC #4, 10 mg/kg, 4h, individual animals, 10 mg/kg): 957 nM and 831 nM
- concentration at 4 h (HPAC #4, 10 mg/kg, 8h, individual animals, 10 mg/kg): 1566 nM and 1418 nM
- concentration at 4 h (HPAC #4, 10 mg/kg, 24h, individual animals, 10 mg/kg): 386 nM and 374 nM
- concentration at 4 h (HPAC #4, 10 mg/kg, 48h, individual animals, 10 mg/kg): 210 nM and 212 nM
- concentration at 4 h (HPAC #4, 25 mg/kg, 4h, individual animals, 25 mg/kg): 2897 nM and 4130 nM
- RMC-6236 (nM) Tumor (HPAC #11, 0.3 mg/kg, 4h, individual animals): BQL
- RMC-6236 (nM) Tumor (HPAC #11, 0.3 mg/kg, 8h, individual animals): BQL
- RMC-6236 (nM) Tumor (HPAC #11, 0.3 mg/kg, 24h, individual animals): BQL
- RMC-6236 (nM) Tumor (HPAC #11, 0.3 mg/kg, 48h, individual animals): BQL
- RMC-6236 (nM) Tumor (HPAC #11, 1 mg/kg, 24h, individual animals): BQL
- RMC-6236 (nM) Tumor (HPAC #11, 1 mg/kg, 48h, individual animals): BQL
- Tumor AUClast (HPAC (25 mg/kg), single dose): 79219 ng·h/mL
- Tumor Cmax (HPAC (25 mg/kg), single dose): 3007 ng/mL
- Tumor AUClast (KP-4 (25 mg/kg), single dose): 79463 ng·h/mL
- Tumor Cmax (KP-4 (25 mg/kg), single dose): 3582 ng/mL
- Brain AUClast [5]: 396 ng·h/mL
- Brain Cmax [5]: 63.2 ng/mL
- Tumor AUClast [6]: 2537 ng·h/mL
- Tumor Cmax [6]: 139 ng/mL
- Tumor AUClast [7]: 2004 ng·h/mL
- Tumor Cmax [7]: 142 ng/mL
- Tumor AUClast (h × ng/mL) [8]: 75128 #2 h × ng/mL
- Tumor Cmax (ng/mL) [8]: 2367 #2 ng/mL
- Tumor AUClast [9]: 51307 ng·h/mL
- Tumor Cmax [9]: 3083 ng/mL
- Tumor AUClast [10]: 32762 ng·h/mL
- Tumor Cmax [10]: 1527 ng/mL
- Tumor AUClast [11]: 6321 ng·h/mL
- Tumor Cmax [11]: 253 ng/mL
- Tumor AUClast [12]: 17526 ng·h/mL
- Tumor Cmax [12]: 821 ng/mL
- Tumor AUClast [13]: 55019 ng·h/mL
- Tumor Cmax [13]: 2083 ng/mL
- RMC-6236 (nM) Tumor (NCI-H441 xenograft tumor, study NCI-H441#10, 0.3 mg/kg, 48h): BQL
- RMC-6236 (nM) Tumor (NCI-H441 xenograft tumor, study NCI-H441#10, 1 mg/kg, 48h): BQL
- RMC-6236 (nM) Tumor (NCI-H441 xenograft tumor, study NCI-H441#13, 0.3 mg/kg, 24h): BQL

Reference: publication PMC11149917, “Translational and Therapeutic Evaluation of RAS-GTP Inhibition by RMC-6236 in RAS-Driven Cancers” (Cancer Discovery, 2024)
